Data from ChEMBL document CHEMBL3988442, “University of Dundee, Small-Polar-MMV Screening Library” (2021).
Where “and” joins values, the source holds several entries; their conditions need not be identical. Equal entries are not always repeated.

How the values were obtained:
Trypanosoma brucei = test: Trypanosoma brucei 72 hour study; type: functional, organism-based; conditions: for IC50: Trypanosoma brucei, 72 h
[1] = target: T1, Ubiquitin-activating enzyme e1, putative (Leishmania donovani (strain BPK282A1), UniProt E9BSI1); test: Leishmania donovani Ubiquitin Activating Enzyme (LdE1); type: functional
T1 sequence (E9BSI1 whole entry): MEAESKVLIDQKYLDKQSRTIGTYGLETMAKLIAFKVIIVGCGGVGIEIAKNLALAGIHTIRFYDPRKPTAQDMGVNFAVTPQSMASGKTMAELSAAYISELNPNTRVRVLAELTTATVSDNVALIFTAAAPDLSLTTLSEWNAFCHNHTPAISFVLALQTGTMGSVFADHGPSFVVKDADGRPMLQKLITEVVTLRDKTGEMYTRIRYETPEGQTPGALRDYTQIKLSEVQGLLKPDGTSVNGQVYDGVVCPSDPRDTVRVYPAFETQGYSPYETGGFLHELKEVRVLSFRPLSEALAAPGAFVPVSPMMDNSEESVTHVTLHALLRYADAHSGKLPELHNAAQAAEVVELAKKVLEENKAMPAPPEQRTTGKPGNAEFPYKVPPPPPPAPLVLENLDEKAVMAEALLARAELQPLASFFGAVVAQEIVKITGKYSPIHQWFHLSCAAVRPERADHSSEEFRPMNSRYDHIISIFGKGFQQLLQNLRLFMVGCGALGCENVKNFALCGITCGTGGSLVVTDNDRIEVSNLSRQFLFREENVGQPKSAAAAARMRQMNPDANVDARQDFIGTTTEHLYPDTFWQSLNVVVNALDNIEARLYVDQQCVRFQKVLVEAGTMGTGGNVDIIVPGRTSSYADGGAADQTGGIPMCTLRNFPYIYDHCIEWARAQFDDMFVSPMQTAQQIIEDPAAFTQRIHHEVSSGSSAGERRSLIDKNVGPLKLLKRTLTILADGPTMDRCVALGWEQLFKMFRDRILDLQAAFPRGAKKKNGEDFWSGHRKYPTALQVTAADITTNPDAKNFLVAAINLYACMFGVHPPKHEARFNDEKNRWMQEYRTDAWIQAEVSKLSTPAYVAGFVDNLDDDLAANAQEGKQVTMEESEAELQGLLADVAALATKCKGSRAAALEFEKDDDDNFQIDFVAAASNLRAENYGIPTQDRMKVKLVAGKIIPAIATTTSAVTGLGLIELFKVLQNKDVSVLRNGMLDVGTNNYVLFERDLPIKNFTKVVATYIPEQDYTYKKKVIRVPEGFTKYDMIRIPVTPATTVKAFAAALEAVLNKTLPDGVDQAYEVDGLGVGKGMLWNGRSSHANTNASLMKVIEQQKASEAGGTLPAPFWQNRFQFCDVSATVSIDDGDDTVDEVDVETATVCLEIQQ

Histidine--tRNA ligase [2] = target: T2, Histidine--tRNA ligase (Trypanosoma cruzi (strain CL Brener), UniProt Q4DA54); test: Trypanosoma cruzi histidyl tRNA synthetase (Tc-HisRS); type: functional
T2 sequence (Q4DA54 whole entry): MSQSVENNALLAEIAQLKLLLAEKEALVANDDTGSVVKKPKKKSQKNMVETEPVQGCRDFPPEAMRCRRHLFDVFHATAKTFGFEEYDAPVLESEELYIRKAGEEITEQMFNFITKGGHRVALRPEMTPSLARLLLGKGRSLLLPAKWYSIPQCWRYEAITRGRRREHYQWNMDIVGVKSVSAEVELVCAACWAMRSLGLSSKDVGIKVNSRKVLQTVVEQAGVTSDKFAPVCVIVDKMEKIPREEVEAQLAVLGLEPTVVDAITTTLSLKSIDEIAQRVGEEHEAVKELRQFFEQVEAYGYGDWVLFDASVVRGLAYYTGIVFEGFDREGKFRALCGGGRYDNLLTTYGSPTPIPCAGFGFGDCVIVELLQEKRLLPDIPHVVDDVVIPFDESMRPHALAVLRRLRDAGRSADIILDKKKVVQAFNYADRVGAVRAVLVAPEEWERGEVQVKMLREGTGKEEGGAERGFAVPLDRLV

Histidine--tRNA ligase [3] = target: T3, Histidine--tRNA ligase (Leishmania infantum, UniProt A4I591); test: Leishmania infantum Histidine tRNA synthetase (LdHisRS); type: functional
T3 sequence (A4I591 whole entry): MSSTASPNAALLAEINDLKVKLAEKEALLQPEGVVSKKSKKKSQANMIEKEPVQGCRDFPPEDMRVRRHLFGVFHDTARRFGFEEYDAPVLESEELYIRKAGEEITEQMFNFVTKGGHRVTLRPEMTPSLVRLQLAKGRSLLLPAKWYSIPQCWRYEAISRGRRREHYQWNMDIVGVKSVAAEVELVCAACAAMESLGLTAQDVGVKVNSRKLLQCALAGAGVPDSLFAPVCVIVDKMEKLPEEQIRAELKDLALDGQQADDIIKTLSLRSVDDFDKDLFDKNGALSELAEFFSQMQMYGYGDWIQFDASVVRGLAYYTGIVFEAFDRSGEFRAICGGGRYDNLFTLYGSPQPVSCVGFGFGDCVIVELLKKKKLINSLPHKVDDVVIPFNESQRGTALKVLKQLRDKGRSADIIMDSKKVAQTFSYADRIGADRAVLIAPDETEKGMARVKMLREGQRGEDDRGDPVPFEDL

Lysine--tRNA ligase = Lysine--tRNA ligase (Plasmodium falciparum (isolate 3D7), UniProt Q8IDJ8); test: Pf-KRS-1 (Lysyl-RNA Synthetase-1, KRS-1, cytosolic KRS) from Plasmodium falciparum. Inhibitor assay, 384 well plate, luminescence read.; type: functional
[4] = target: T4, Coenzyme A biosynthesis bifunctional protein CoaBC (Mycobacterium tuberculosis (strain ATCC 25618 / H37Rv), UniProt P9WNZ1); test: Biomol Green assay for MtCoaBC inhibitor, OD650 read; type: functional
T4 sequence (P9WNZ1 whole entry): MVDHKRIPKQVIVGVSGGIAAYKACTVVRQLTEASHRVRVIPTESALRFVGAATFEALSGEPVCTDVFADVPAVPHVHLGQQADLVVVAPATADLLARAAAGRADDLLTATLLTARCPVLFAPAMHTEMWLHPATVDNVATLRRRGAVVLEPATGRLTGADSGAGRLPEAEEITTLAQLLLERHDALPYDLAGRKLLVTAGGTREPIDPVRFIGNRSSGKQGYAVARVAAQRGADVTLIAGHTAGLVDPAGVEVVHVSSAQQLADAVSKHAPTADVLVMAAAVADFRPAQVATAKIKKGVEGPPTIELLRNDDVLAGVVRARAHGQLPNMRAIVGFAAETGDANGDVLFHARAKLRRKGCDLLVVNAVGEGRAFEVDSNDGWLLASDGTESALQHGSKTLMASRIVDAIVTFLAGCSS

Plasmodium falciparum = test: Calibr Malaria Delayed Death Assay SOP; type: functional, organism-based; conditions: for IC50: Plasmodium falciparum
[5] = microbe, parasite or virus in culture; conditions: Mycobacterium tuberculosis, 96 h, read-out: pIC50 (converted)
[6] = system: Mycobacterium tuberculosis; test: Cornell M. t heat shock assay; type: functional, organism-based; conditions: Mycobacterium tuberculosis
[7] = microbe, parasite or virus in culture; conditions: Mycobacterium tuberculosis, 72 h, read-out: pIC50 (converted)
[8] = target: Polyketide synthase Pks13 (Mycobacterium tuberculosis (strain ATCC 25618 / H37Rv), UniProt I6X8D2); test: Mycobacterium tuberculosis Polyketide synthase 13 Thioesterase (PKS13); type: functional
Polyketide synthase Pks13, sequence (I6X8D2 whole entry): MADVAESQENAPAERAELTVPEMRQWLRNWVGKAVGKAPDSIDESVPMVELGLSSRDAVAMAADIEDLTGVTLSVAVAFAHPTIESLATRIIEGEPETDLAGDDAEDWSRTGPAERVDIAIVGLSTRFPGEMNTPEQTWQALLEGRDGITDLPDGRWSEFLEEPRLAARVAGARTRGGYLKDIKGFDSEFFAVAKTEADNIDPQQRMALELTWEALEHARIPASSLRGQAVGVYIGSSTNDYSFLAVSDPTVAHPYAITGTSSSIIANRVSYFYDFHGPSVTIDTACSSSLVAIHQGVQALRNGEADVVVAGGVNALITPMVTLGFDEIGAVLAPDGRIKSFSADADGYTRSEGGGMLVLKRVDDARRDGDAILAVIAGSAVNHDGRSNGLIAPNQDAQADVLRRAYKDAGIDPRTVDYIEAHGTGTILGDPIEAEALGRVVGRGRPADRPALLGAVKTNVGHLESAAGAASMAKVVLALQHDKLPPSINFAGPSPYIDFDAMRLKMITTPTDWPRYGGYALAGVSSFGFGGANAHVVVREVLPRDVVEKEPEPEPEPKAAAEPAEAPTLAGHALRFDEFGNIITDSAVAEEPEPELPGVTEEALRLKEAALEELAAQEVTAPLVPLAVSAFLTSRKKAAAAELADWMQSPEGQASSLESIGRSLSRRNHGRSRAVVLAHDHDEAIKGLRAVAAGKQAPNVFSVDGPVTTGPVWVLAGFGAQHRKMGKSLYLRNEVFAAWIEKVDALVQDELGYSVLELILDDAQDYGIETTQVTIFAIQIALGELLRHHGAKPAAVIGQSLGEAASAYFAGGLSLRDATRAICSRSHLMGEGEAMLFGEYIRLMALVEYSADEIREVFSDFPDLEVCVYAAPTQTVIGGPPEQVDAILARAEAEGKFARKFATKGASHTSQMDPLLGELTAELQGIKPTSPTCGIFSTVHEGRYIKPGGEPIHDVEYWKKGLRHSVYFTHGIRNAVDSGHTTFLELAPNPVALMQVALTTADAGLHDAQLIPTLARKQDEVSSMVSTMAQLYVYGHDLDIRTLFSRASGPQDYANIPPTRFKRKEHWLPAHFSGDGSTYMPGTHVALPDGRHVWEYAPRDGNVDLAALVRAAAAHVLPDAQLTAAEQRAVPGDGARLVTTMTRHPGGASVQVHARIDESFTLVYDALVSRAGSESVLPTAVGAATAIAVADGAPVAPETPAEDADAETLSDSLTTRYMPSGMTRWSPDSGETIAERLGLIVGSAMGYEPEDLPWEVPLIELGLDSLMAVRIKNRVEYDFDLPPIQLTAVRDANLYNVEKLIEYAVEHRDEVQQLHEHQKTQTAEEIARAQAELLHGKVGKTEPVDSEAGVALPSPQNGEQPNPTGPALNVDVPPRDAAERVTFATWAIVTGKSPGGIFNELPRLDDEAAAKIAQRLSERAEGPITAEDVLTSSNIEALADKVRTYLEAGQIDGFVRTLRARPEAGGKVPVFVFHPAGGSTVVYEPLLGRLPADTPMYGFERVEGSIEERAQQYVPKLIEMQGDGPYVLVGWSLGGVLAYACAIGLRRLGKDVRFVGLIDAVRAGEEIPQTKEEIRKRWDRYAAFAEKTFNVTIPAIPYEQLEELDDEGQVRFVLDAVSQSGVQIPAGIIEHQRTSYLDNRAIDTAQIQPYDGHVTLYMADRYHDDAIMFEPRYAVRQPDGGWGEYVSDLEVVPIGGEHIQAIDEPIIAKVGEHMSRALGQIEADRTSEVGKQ

Lysine--tRNA ligase, sequence (Q8IDJ8 whole entry): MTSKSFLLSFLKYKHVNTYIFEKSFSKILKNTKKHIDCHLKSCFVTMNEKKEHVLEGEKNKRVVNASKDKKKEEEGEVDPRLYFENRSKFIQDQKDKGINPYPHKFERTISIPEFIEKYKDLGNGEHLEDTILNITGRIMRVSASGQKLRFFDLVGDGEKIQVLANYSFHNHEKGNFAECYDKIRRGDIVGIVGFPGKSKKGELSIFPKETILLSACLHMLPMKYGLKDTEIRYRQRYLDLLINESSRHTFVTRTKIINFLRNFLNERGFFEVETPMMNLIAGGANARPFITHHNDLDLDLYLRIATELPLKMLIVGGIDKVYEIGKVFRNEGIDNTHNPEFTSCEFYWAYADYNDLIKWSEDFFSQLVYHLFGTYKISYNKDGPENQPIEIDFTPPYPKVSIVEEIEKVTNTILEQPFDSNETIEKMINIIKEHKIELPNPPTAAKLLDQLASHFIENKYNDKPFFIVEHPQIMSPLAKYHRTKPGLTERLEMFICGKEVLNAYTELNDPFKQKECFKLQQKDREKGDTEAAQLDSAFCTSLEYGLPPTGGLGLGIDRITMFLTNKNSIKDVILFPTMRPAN

Structure (SMILES): CN(C)c1ccc(-c2cc(C(=O)O)cc(S(=O)(=O)NC3CC3)c2)cc1
- pIC50 (Trypanosoma brucei): 5.904 and 6.15
- IC50 (Trypanosoma brucei): 0.716 µM

Structure (SMILES): Cn1cc(NC(=O)N2CCC(CN3CCCC3)CC2)ccc1=O
- IC50 [1]: > 100 µM
- IC50 (Histidine--tRNA ligase [2]): > 100 µM

Structure (SMILES): Cn1cc(NC(=O)C2CC(c3ccccc3)C2)ccc1=O (stereo unspecified)
- IC50 [1]: > 100 µM
- IC50 (Histidine--tRNA ligase [3]): 8.88 µM and 10.5 µM
- IC50 (Histidine--tRNA ligase [2]): 8.22 µM

Structure (SMILES): Cc1cccc(CN2CCCCC2c2n[nH]cc2-c2cc(C)no2)c1.Cl (stereo unspecified)
- pIC50 (Trypanosoma brucei): 4.638 and 4.693
- IC50 (Trypanosoma brucei): 19.8 µM

Structure (SMILES): Cn1cc(NC(=O)N2CCC(NS(C)(=O)=O)CC2)ccc1=O
- IC50 [1]: > 100 µM
- IC50 (Lysine--tRNA ligase): > 50.1 µM
- IC50 [4]: > 30.2 µM
- IC50 (Histidine--tRNA ligase [3]): 2.32 µM and 2.57 µM
- IC50 (Histidine--tRNA ligase [2]): 52.1 µM and 49.1 µM

Structure (SMILES): Cl.Fc1ccc(F)c(CN2CCC(c3cc4ncccc4cn3)CC2)c1
- pIC50 (Plasmodium falciparum): 6.54
- IC50 (Plasmodium falciparum): 0.505 µM
- IC50 [5]: > 50.1 µM
- IC50 [6]: > 100 µM
- IC50 [7]: 27.2 µM
- IC50 (Histidine--tRNA ligase [2]): 58.4 µM and 43.6 µM

Structure (SMILES): CCCn1cc(NC(=O)c2ccc(S(C)(=O)=O)cc2)ccc1=O
- IC50 (Lysine--tRNA ligase): > 50.1 µM
- IC50 (Histidine--tRNA ligase [3]): 1.71 µM and 0.847 µM and 0.944 µM and 1.37 µM
- IC50 (Histidine--tRNA ligase [2]): 21.5 µM and 19.6 µM

Structure (SMILES): c1ccc(N2CCOCC3(CCCN(c4nccs4)C3)C2)nc1 (stereo unspecified)
- IC50 [8]: > 100 µM
- IC50 (Histidine--tRNA ligase [2]): > 100 µM

Structure (SMILES): Cc1cc(=O)n(C)cc1NC(=O)NCc1cccc(F)c1
- IC50 (Lysine--tRNA ligase): > 50.1 µM
- IC50 (Histidine--tRNA ligase [3]): 6.8 µM and 6.63 µM
- IC50 (Histidine--tRNA ligase [2]): 9.43 µM and 9.23 µM

Structure (SMILES): O=C(NCCc1coc(-c2ccc(F)cc2)n1)NC1CC1
- pIC50 (Trypanosoma brucei): 5.662 and 5.643
- IC50 (Trypanosoma brucei): 2.17 µM

Structure (SMILES): Cn1cc(NC(=O)NCc2ccsc2)ccc1=O
- IC50 (Lysine--tRNA ligase): > 50.1 µM
- IC50 (Histidine--tRNA ligase [3]): 2.07 µM and 2.41 µM and 2.32 µM and 2.42 µM
- IC50 (Histidine--tRNA ligase [2]): 4.72 µM and 5.06 µM

Structure (SMILES): CCCn1cc(NC(=O)c2ccncc2)ccc1=O
- IC50 (Lysine--tRNA ligase): > 50.1 µM
- IC50 (Histidine--tRNA ligase [3]): 3.64 µM and 3.18 µM
- IC50 (Histidine--tRNA ligase [2]): 5.29 µM and 4 µM

Structure (SMILES): CC(C)(C)C(=O)NCCc1ccn(-c2ccccc2)n1
- pIC50 (Trypanosoma brucei): 5.66 and 5.649
- IC50 (Trypanosoma brucei): 2.22 µM

Structure (SMILES): c1ccc(N2CCCC3(COCCN(c4nccs4)C3)C2)nc1 (stereo unspecified)
- IC50 [4]: > 30.2 µM
- IC50 (Histidine--tRNA ligase [2]): 73.9 µM and 71.8 µM

Structure (SMILES): Cc1cc(=O)n(C)cc1NC(=O)Cc1cccc(Cl)c1
- IC50 (Lysine--tRNA ligase): > 50.1 µM
- IC50 (Histidine--tRNA ligase [3]): 5 µM and 6.56 µM
- IC50 (Histidine--tRNA ligase [2]): 4.77 µM

Structure (SMILES): Cn1cc(NC(=O)N2CCC(Cc3ccccc3)CC2)ccc1=O
- IC50 [1]: > 100 µM
- IC50 (Histidine--tRNA ligase [3]): 6.79 µM and 5.48 µM
- IC50 (Histidine--tRNA ligase [2]): 3.14 µM and 2.52 µM

Structure (SMILES): CNc1cc(-c2ccccc2CN)c2cc[nH]c2n1
- IC50 [4]: > 30.2 µM
- IC50 (Histidine--tRNA ligase [3]): 10.6 µM and 10.1 µM
- IC50 (Histidine--tRNA ligase [2]): 22.6 µM and 37.8 µM

Structure (SMILES): Cl.Fc1cccc(CN2CCC(c3cc4ncccc4cn3)CC2)c1F
- pIC50 (Plasmodium falciparum): 6.161
- IC50 (Plasmodium falciparum): 0.897 µM
- IC50 [6]: 43.3 µM
- IC50 (Histidine--tRNA ligase [2]): 28.5 µM and 56.4 µM

Structure (SMILES): CN(Cc1ccsc1)C(=O)Nc1ccc(=O)n(C)c1
- IC50 (Lysine--tRNA ligase): > 50.1 µM
- IC50 (Histidine--tRNA ligase [3]): 4.2 µM and 4.05 µM
- IC50 (Histidine--tRNA ligase [2]): 4.99 µM and 3.42 µM

Structure (SMILES): Cc1cc(C)n(CC2CCCN2Cc2nc(N)c3ccccc3n2)n1 (stereo unspecified)
- IC50 [6]: > 100 µM
- IC50 (Histidine--tRNA ligase [2]): > 100 µM

Structure (SMILES): Cn1cc(NC(=O)NCc2ccoc2)ccc1=O
- IC50 (Lysine--tRNA ligase): > 50.1 µM
- IC50 (Histidine--tRNA ligase [3]): 3.44 µM and 3.04 µM
- IC50 (Histidine--tRNA ligase [2]): 7.29 µM and 8.84 µM
